Measurements published in the NIST ThermoML archive (doi:10.1021/je200038n).
± gives the expanded uncertainty stated by the source.

Legend:
[1] = molar heat capacity at constant pressure; wn = mass fraction of the nth substance listed; settings: 3000 kPa, Liquid, Flow calorimetry, w1 = 1
[2] = molar heat capacity at constant pressure; settings: 3000 kPa, Liquid, Flow calorimetry

Row | SMILES | molar heat capacity at constant pressure ([1]; 304.17 K) [J/K/mol] | molar heat capacity at constant pressure ([1]; 314.14 K) [J/K/mol] | molar heat capacity at constant pressure ([1]; 324.11 K) [J/K/mol] | molar heat capacity at constant pressure ([1]; 334.09 K) [J/K/mol] | molar heat capacity at constant pressure ([2]; 304.17 K) [J/K/mol] | molar heat capacity at constant pressure ([2]; 314.14 K) [J/K/mol] | molar heat capacity at constant pressure ([2]; 324.11 K) [J/K/mol] | molar heat capacity at constant pressure ([2]; 334.09 K) [J/K/mol]
1 | N [ammonia] + N#C[S-].[Na+] | 82.46 ± 0.53 | 83.45 ± 0.53 | 85.83 ± 0.53 | 89.36 ± 0.53 |  |  |  | 
2 | N [ammonia] |  |  |  |  | 82.46 ± 0.53 | 83.45 ± 0.53 | 85.83 ± 0.53 | 89.36 ± 0.53
